Source: the NIST ThermoML archive (doi:10.1016/j.jct.2015.09.031)

Test: molar heat capacity at constant pressure
Settings: Liquid, Flow calorimetry

CCOC(=O)/C=C/c1ccccc1 [ethyl trans-3-phenylpropenoate]
Settings | molar heat capacity at constant pressure [J/K/mol]
306.7 K, 100 kPa | 299.7
306.7 K, 3970 kPa | 297.7
306.8 K, 7840 kPa | 297.2
306.9 K, 11640 kPa | 295.5
307.1 K, 15780 kPa | 294.4
315.8 K, 100 kPa | 302.2
315.8 K, 4120 kPa | 301.9
315.9 K, 8120 kPa | 300.4
316 K, 11870 kPa | 299.4
316.1 K, 15790 kPa | 297.4
325.2 K, 100 kPa | 307.1
325.5 K, 3970 kPa | 304.6
325.6 K, 8000 kPa | 303
325.8 K, 11720 kPa | 301.8
325.8 K, 16030 kPa | 301
334.6 K, 100 kPa | 311.1
334.8 K, 3970 kPa | 309.5
334.9 K, 8070 kPa | 308
335 K, 11750 kPa | 306.6
335.1 K, 16080 kPa | 303.6
345.1 K, 100 kPa | 315.3
345.2 K, 3910 kPa | 313.4
345.3 K, 7970 kPa | 312
345.4 K, 11840 kPa | 310.1
345.6 K, 15760 kPa | 308.2
355.3 K, 11990 kPa | 313.5
355.5 K, 16020 kPa | 312.1
355.6 K, 100 kPa | 320.2
355.7 K, 3930 kPa | 316.6
355.8 K, 7990 kPa | 315.4
366 K, 100 kPa | 324.5
366.3 K, 4210 kPa | 321.3
366.5 K, 8030 kPa | 319.6
366.6 K, 12140 kPa | 318.6
366.9 K, 16090 kPa | 316.8
375.6 K, 100 kPa | 328.3
375.8 K, 4120 kPa | 326
375.9 K, 8030 kPa | 323.8
376.2 K, 12180 kPa | 321.6
376.4 K, 16170 kPa | 320.4
385.6 K, 100 kPa | 332.5
385.9 K, 4170 kPa | 330.4
386.1 K, 8090 kPa | 329.1
386.3 K, 12160 kPa | 327.2
386.5 K, 16040 kPa | 325.7

CCCCCCC(=O)OCC [ethyl heptanoate]
Settings | molar heat capacity at constant pressure [J/K/mol]
305.4 K, 100 kPa | 318.3
305.4 K, 4040 kPa | 317.7
305.4 K, 8190 kPa | 317.3
305.4 K, 12090 kPa | 316.8
305.5 K, 16070 kPa | 316.4
315.7 K, 100 kPa | 322.5
315.8 K, 4190 kPa | 322
315.9 K, 8150 kPa | 321.6
315.9 K, 12260 kPa | 320.5
316 K, 16160 kPa | 319.6
326.2 K, 16030 kPa | 323.6
326.5 K, 100 kPa | 326.8
326.5 K, 4140 kPa | 325.9
326.6 K, 8170 kPa | 325.2
326.6 K, 12110 kPa | 324.3
335.3 K, 100 kPa | 330.3
335.3 K, 4060 kPa | 330.1
335.4 K, 8050 kPa | 328.6
335.4 K, 12030 kPa | 327.6
335.5 K, 16070 kPa | 326.9
345.1 K, 100 kPa | 334.2
345.2 K, 4070 kPa | 333.5
345.6 K, 8230 kPa | 332.5
345.7 K, 12160 kPa | 332.2
345.7 K, 16230 kPa | 330.5
354.2 K, 100 kPa | 337.8
354.2 K, 4120 kPa | 337.3
354.3 K, 8010 kPa | 336.5
354.4 K, 12390 kPa | 335.6
354.5 K, 16250 kPa | 334.5
364.9 K, 100 kPa | 342.1
365.3 K, 3870 kPa | 341.3
365.6 K, 8320 kPa | 340.3
365.7 K, 12160 kPa | 339.5
365.8 K, 15950 kPa | 338.3
374.8 K, 100 kPa | 346.1
375 K, 3980 kPa | 345.5
375.5 K, 8020 kPa | 344
375.7 K, 12070 kPa | 342.6
375.9 K, 16040 kPa | 341.4
384 K, 100 kPa | 349.8
385 K, 4020 kPa | 349.1
385.4 K, 8040 kPa | 347.1
385.5 K, 11880 kPa | 346.1
385.7 K, 15890 kPa | 345.6
